Experimental findings from PubChem BioAssay AID1159565 (GlaxoSmithKline (GSK), 2015) are described below.

The source made the active and inactive calls. The rule behind the calls is not given here.

By IC50 is commonly meant the concentration needed to halve the response being measured.

The first assay has as its system T. cruzi-infected H9C2 cardiomyocytes, high-content imaging. The assay can be described thus: intracellular T. cruzi amastigote inhibition, imaging, H9C2 host cardiomyocytes, host toxicity (AID 1159565).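 Note: infected cells incubated 72 h after plating.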
Conditions: not given
With `CCCC(=O)N(Cc1ccccn1)c1nc2ccccc2s1`, the IC50 is 0.1 µM.

Turning to `O=C1CN(Cc2ccco2)C2CS(=O)(=O)CC2N1c1ccc(Cl)cc1` (configuration not stated), the IC50 is > 50 µM (inactive).

On to `C[C@@H](Oc1cc(-n2cnc3cc(N)ccc32)sc1C(N)=O)c1ccccc1Cl`, for which the IC50 is 20 µM.

Consider `C=CCOCC1Cn2nc([N+](=O)[O-])nc2O1` (configuration not stated), for which the IC50 is 1.3 µM.

On to `O=C(NCC1CCCCC1)c1cc(=O)c2ccccc2o1`, for which the IC50 is 0.63 µM.

In the case of `NC(N)=Nc1nc(-c2ccc(NC(N)=NCCN3CCCC3)cc2)cs1`, the IC50 was > 50 µM (inactive).

Turning to `O=C(Cc1ccccc1)Nc1ccccc1C(=O)Nc1nccs1`, the IC50 is > 50 µM (inactive).

`O=C(NCCc1ccn(-c2ccccc2)n1)C1CCCCC1`: the IC50 was 1 µM.

For the compound `O=C(NCCc1csc(-c2ccc(F)cc2)n1)c1ccco1`, the IC50 was 1.6 µM.

`O=C(CCCn1cnc([N+](=O)[O-])n1)Nc1cccc(Cl)c1`: the IC50 was 0.5 µM.

As to `COc1cccc(S(=O)(=O)Nc2ccc3c(c2)CC(N2CCC(NC(=O)C4CC4)CC2)C3)c1` (configuration not stated), the IC50 was > 50 µM (inactive).

`Cc1occc1C(=O)Nc1ccccc1C(=O)Nc1nccs1`: the IC50 was > 50 µM (inactive).

For the compound `CC1=NN(C(=O)CCn2cnc([N+](=O)[O-])n2)C(O)(C(F)(F)F)C1` (configuration not stated), the IC50 was 6.3 µM.

As to `COc1ccc(S(=O)(=O)NCc2ccc(-c3ccc(CN(C)CCO)cc3)cc2)cc1`, the IC50 was 2.5 µM.

On to `O=C(Nc1ccccc1C(=O)Nc1ccccn1)c1ccco1`, for which the IC50 was > 50 µM (inactive).

Take `CC1CCCCN1C(=O)NCCc1coc(-c2ccc(F)cc2)n1` (configuration not stated): the IC50 is 0.32 µM.

For the compound `COc1ccc(S(=O)(=O)Nc2ccc(C(=O)Nc3nc(-c4ccccn4)cs3)cc2)cc1`, the IC50 was 0.79 µM.

As for `CN(Cc1nc2ccccc2s1)C(=O)C=Cc1cc2ccccc2o1`, the IC50 is 0.79 µM.

For the compound `COc1ccc(OC)c2c(=O)c(Cc3ccccc3)c(C)[nH]c12`, the IC50 is 0.5 µM.

For `O=C(NC1C(=O)N(c2ccccc2)C1c1cccnc1)c1ccc(Cl)s1` (configuration not stated), the IC50 is 0.05 µM.

In the case of `CCC(=O)N1N=C(c2ccc3c(c2)CCCC3)Sc2c1ncn2C(=O)CC`, the IC50 is 20 µM.

Regarding `CCOc1cc(NCCCN2CCN(C)CC2)c2ncccc2c1`, the IC50 was 1.3 µM.

With `O=C(NNC(=O)c1ccccn1)c1ccc(-c2ccccc2)cc1`, the IC50 is 1.6 µM.

For the compound `COc1ccc(OC)c(NC(=O)c2ccc([N+](=O)[O-])o2)c1`, the IC50 is 13 µM.

As for `Cc1c(Nc2cc(C3CC3)[nH]n2)ccc(C#N)c1Cl`, the IC50 is 25 µM.

As to `CN(C)S(=O)(=O)c1ccc(Cl)c(C(=O)Nc2nc(-c3ccccn3)cs2)c1`, the IC50 was 2 µM.

As to `O=C(NCCc1csc(-c2cccc(F)c2)n1)c1ccco1`, the IC50 was 1.6 µM.

Consider `CC(C(=O)Nc1ccc(Br)cc1)N1CCN(c2ccc([N+](=O)[O-])cc2)CC1` (configuration not stated), for which the IC50 was 2.5 µM.

With `CNC(=O)Oc1ccc(C(=O)NCc2ccccc2)cc1OC(=O)NC`, the IC50 is 40 µM.

Take `O=C(COc1ncnc2cc([N+](=O)[O-])ccc12)NC(=O)NC1CCCCC1`: the 50% inhibitory concentration (IC50) was 1 µM.

As to `Cc1cc(C)n(-c2nc(NC(C)(C)C)nc(N3CCOCC3)n2)n1`, the IC50 was 10 µM.

Consider `O=C(NCc1ccncc1)c1ccccc1N1CCCN(C(=O)Cc2ccc(F)c(F)c2)CC1`, for which the IC50 was 0.079 µM.

For `O=C(Nc1nc(-c2ccc(S(=O)(=O)N3CCOCC3)cc2)cs1)c1ccc([N+](=O)[O-])cc1`, the IC50 was 1.6 µM.

Take `COc1ncc(-c2ccc3nccc(-c4ccncc4)c3c2)cc1NS(C)(=O)=O`: the IC50 was 25 µM.

For the compound `Cc1cc2nc(N3CC[C@H]3C(N)=O)nc(Nc3cc(C4CC4)[nH]n3)c2s1`, the IC50 is 7.9 µM.

Take `O=C(CN(c1cccc(C(F)(F)F)c1)S(=O)(=O)c1ccc(Cl)cc1)NCc1ccc(F)c(F)c1`: the IC50 is 0.79 µM.

For `Cc1nc2c(-c3cccs3)c(C)nn2c(NCCO)c1C`, the IC50 is 32 µM.

Consider `COc1cc(Cl)c(C)cc1NC(=O)c1ccc([N+](=O)[O-])s1`, for which the IC50 is 0.63 µM.

As to `Cc1nc(N2CC(C)OC(C)C2)sc1C(=O)Nc1ccc2c(c1)OCO2` (configuration not stated), the IC50 is 4 µM.

As for `NC(=O)c1ccc(-c2cccc(OCCN3CCN(C4CCCCC4)CC3)c2)cc1`, the IC50 was 1.6 µM.

As for `Cc1c(CNC(=O)c2ccc(Cn3cc(Cl)c([N+](=O)[O-])n3)cc2)cnn1C`, the concentration for half-maximal inhibition (IC50) is 1.6 µM.

With `CC(=O)NCCNc1cc(-c2ccnc(Nc3cccc(Cl)c3)n2)ccn1`, the IC50 is 1.6 µM.

Consider `c1ccc(CCNCc2cncc3nc(-c4cnccn4)n(C4CCCCC4)c23)cc1`, for which the IC50 is 0.13 µM.

For the compound `CNc1c(C(N)=O)c(-c2ccc3scnc3c2)nn1CC(F)(F)F`, the IC50 was 0.25 µM.

As for `CS(=O)(=O)c1cccc(CNC(=O)c2cncc(N3CCN(c4ccc(F)cc4)CC3)c2)c1`, the IC50 was 0.4 µM.

In the case of `O=c1[nH]cnc2c([C@@H]3O[C@H](CO)[C@@H](O)[C@H]3O)[nH]nc12`, the IC50 is 0.5 µM.

Consider `CCOc1ccc(OCC(=O)N2c3ccccc3CC2C(=O)NC)cc1` (configuration not stated), for which the IC50 was > 50 µM (inactive).

As to `COc1ccc(NS(=O)(=O)c2cc(NC(=O)c3ccc([N+](=O)[O-])s3)ccc2OC)cc1`, the IC50 is 0.1 µM.

Regarding `c1cc(-c2ncc(-c3ccn[nH]3)s2)ccn1`, the IC50 was 0.25 µM.

Regarding `COc1ccc(C)cc1-c1csc(NC(=O)C(C)n2ccnc2)n1` (configuration not stated), the IC50 is 0.1 µM.

Turning to `c1ccc(Nc2nc(-c3ccccn3)cc(N3CCOCC3)n2)cc1`, the IC50 was > 50 µM (inactive).

Take `O=C(NC(c1ccc(Cl)cc1)c1cnccn1)C1CCN(C(=O)Nc2cccc(C(F)(F)F)c2)CC1` (configuration not stated): the IC50 was 0.63 µM.

With `COc1cnc2ccc(=O)n(CCN3CCC(NC/C=C/c4cc(F)ccc4F)CC3)c2c1`, the IC50 was 0.02 µM.

`Clc1ccc(Sc2cnccc2N2CCOCC2)cc1`: the IC50 is 0.13 µM.

Take `O=C(NC1CCN(C2Cc3ccc(NS(=O)(=O)c4cc(F)cc(F)c4)cc3C2)CC1)C1CC1` (configuration not stated): the IC50 was > 50 µM (inactive).

The same assay, now with this note: measured here: H9C2 host cell toxicity.
For `CCCC(=O)N(Cc1ccccn1)c1nc2ccccc2s1`, the IC50 is over 50 µM.

The compound `O=C1CN(Cc2ccco2)C2CS(=O)(=O)CC2N1c1ccc(Cl)cc1` (configuration not stated) registered an IC50 of over 50 µM.

In turn, `C[C@@H](Oc1cc(-n2cnc3cc(N)ccc32)sc1C(N)=O)c1ccccc1Cl` displayed an IC50 of 1 µM.

On to `C=CCOCC1Cn2nc([N+](=O)[O-])nc2O1` (configuration not stated), for which the IC50 is over 50 µM.

With `O=C(NCC1CCCCC1)c1cc(=O)c2ccccc2o1`, the IC50 came to 32 µM.

Regarding `NC(N)=Nc1nc(-c2ccc(NC(N)=NCCN3CCCC3)cc2)cs1`, the IC50 is over 50 µM.

With `O=C(Cc1ccccc1)Nc1ccccc1C(=O)Nc1nccs1`, the IC50 is over 50 µM.

In the case of `O=C(NCCc1ccn(-c2ccccc2)n1)C1CCCCC1`, the IC50 was over 50 µM.

With `O=C(NCCc1csc(-c2ccc(F)cc2)n1)c1ccco1`, the IC50 was over 50 µM.

For the compound `O=C(CCCn1cnc([N+](=O)[O-])n1)Nc1cccc(Cl)c1`, the IC50 is over 50 µM.

As to `COc1cccc(S(=O)(=O)Nc2ccc3c(c2)CC(N2CCC(NC(=O)C4CC4)CC2)C3)c1` (configuration not stated), the IC50 was over 50 µM.

Compound `Cc1occc1C(=O)Nc1ccccc1C(=O)Nc1nccs1` had an IC50 of over 50 µM.

Compound `CC1=NN(C(=O)CCn2cnc([N+](=O)[O-])n2)C(O)(C(F)(F)F)C1` (configuration not stated) registered an IC50 of over 50 µM.

For the compound `COc1ccc(S(=O)(=O)NCc2ccc(-c3ccc(CN(C)CCO)cc3)cc2)cc1`, the IC50 is over 50 µM.

Take `O=C(Nc1ccccc1C(=O)Nc1ccccn1)c1ccco1`: the IC50 was over 50 µM.

`CC1CCCCN1C(=O)NCCc1coc(-c2ccc(F)cc2)n1` (configuration not stated): the IC50 was over 50 µM.

`COc1ccc(S(=O)(=O)Nc2ccc(C(=O)Nc3nc(-c4ccccn4)cs3)cc2)cc1` returned an IC50 of 6.3 µM.

Consider `CN(Cc1nc2ccccc2s1)C(=O)C=Cc1cc2ccccc2o1`, for which the IC50 is over 50 µM.

Consider `COc1ccc(OC)c2c(=O)c(Cc3ccccc3)c(C)[nH]c12`, for which the IC50 is over 50 µM.

In the case of `O=C(NC1C(=O)N(c2ccccc2)C1c1cccnc1)c1ccc(Cl)s1` (configuration not stated), the IC50 was over 50 µM.

The compound `CCC(=O)N1N=C(c2ccc3c(c2)CCCC3)Sc2c1ncn2C(=O)CC` gave an IC50 of over 50 µM.

For `CCOc1cc(NCCCN2CCN(C)CC2)c2ncccc2c1`, the IC50 came out at 32 µM.

Consider `O=C(NNC(=O)c1ccccn1)c1ccc(-c2ccccc2)cc1`, for which the IC50 amounted to 2 µM.

Compound `COc1ccc(OC)c(NC(=O)c2ccc([N+](=O)[O-])o2)c1` yielded an IC50 of 4 µM.

`Cc1c(Nc2cc(C3CC3)[nH]n2)ccc(C#N)c1Cl` yielded an IC50 of 10 µM.

In turn, `CN(C)S(=O)(=O)c1ccc(Cl)c(C(=O)Nc2nc(-c3ccccn3)cs2)c1` returned an IC50 of 6.3 µM.

`O=C(NCCc1csc(-c2cccc(F)c2)n1)c1ccco1` had an IC50 of 10 µM.
